# According to patent US6858591B2, “Antibiotic AA 896 analogs” (Wyeth Holdings Corporation, priority 2001, dated 2005):
# Where two headings read alike, the source gives them in different places.
# Key:
# Test in all cases: In vitro MIC, broth dilution
# Type in all cases: cell-based
# [1] = system: E. faecalis GC 842; conditions: Enterococcus faecalis, GC842
# Method in brief: (§1)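 Broth microdilution per NCCLS in Mueller-Hinton II, inoculum 5×10^5 CFU/ml, antibiotic range 64-0.06 μg/ml. Plates incubated 18 hours at 35° C. in ambient air; MIC taken as lowest concentration inhibiting visible growth.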
# [2] = system: S. aureus GC 2216; conditions: Staphylococcus aureus, GC2216
# Method in brief: as §1
# [3] = system: S. aureus GC 1131; conditions: Staphylococcus aureus, GC1131
# Method in brief: as §1
# [4] = system: E. faecalis GC 4555; conditions: Enterococcus faecalis, GC4555
# Method in brief: as §1
# [5] = system: CNS GC 4537
# Method in brief: as §1
# [6] = system: CNS GC 4538
# Method in brief: as §1
# [7] = system: CNS GC 4547
# Method in brief: as §1
# [8] = system: E. faecalis GC 2242; conditions: Enterococcus faecalis, GC2242
# Method in brief: as §1
# [9] = system: S. aureus GC 4536; conditions: Staphylococcus aureus, GC4536
# Method in brief: as §1
# [10] = system: E. coli GC 2203; conditions: Escherichia coli, GC2203
# [11] = system: K. pneumoniae GC 4534; conditions: Klebsiella pneumoniae, GC4534
# [12] = system: M. morganii GC 4531; conditions: Morganella morganii, GC4531
# [13] = system: P. aeruginosa GC 2214; conditions: Pseudomonas aeruginosa, GC2214
# [14] = system: E. coli GC 4560; conditions: Escherichia coli, GC4560
# [15] = system: C. albicans GC 3066; conditions: Candida albicans, GC3066
# [16] = system: E. cloacae GC 3783; conditions: Enterobacter cloacae, GC3783
# [17] = system: E. coli GC 3226; conditions: Escherichia coli, GC3226
# [18] = system: P. aeruginosa GC 4532; conditions: Pseudomonas aeruginosa, GC4532
# [19] = system: E. coli GC 4559; conditions: Escherichia coli, GC4559
# [20] = system: S. marcescens GC 4077; conditions: Serratia marcescens, GC4077
# [21] = E. faecalis GC 842, read-out: MIC
# [22] = S. aureus GC 2216, read-out: MIC
# [23] = S. aureus GC 1131, read-out: MIC
# [24] = E. faecalis GC 4555, read-out: MIC
# [25] = E. faecalis GC 2242, read-out: MIC
# [26] = S. aureus GC 4536, read-out: MIC
# [27] = K. pneumoniae GC 4534, read-out: MIC
# [28] = M. morganii GC 4531, read-out: MIC
# [29] = P. aeruginosa GC 2214, read-out: MIC
# [30] = C. albicans GC 3066, read-out: MIC
# [31] = E. cloacae GC 3783, read-out: MIC
# [32] = P. aeruginosa GC 4532, read-out: MIC
# [33] = S. marcescens GC 4077, read-out: MIC
Structure (SMILES),"MIC [1, 21] [µg/mL]","MIC [2, 22] [µg/mL]","MIC [3, 23] [µg/mL]","MIC [4, 24] [µg/mL]","MIC ([5]; CNS GC 4537, read-out: MIC) [µg/mL]","MIC ([6]; CNS GC 4538, read-out: MIC) [µg/mL]","MIC ([7]; CNS GC 4547, read-out: MIC) [µg/mL]","MIC [8, 25] [µg/mL]","MIC [9, 26] [µg/mL]","MIC ([10]; E. coli GC 2203, read-out: MIC) [µg/mL]","MIC [11, 27] [µg/mL]","MIC [12, 28] [µg/mL]","MIC [13, 29] [µg/mL]","MIC ([14]; E. coli GC 4560, read-out: MIC) [µg/mL]","MIC [15, 30] [µg/mL]","MIC [16, 31] [µg/mL]","MIC ([17]; E. coli GC 3226, read-out: MIC) [µg/mL]","MIC [18, 32] [µg/mL]","MIC ([19]; E. coli GC 4559, read-out: MIC) [µg/mL]","MIC [20, 33] [µg/mL]",also measured
"COc1ccc(Cn2c(=O)ccn([C@@H]3OC([C@H](O)[C@H](NCCCNC(=O)C(NC(=O)[C@H](CCCNC(=N)N[N+](=O)[O-])NC(=O)N[C@H](C(=O)OCc4ccccc4)C(C)C)[C@@H](C)O)C(=O)OC(C)(C)C)[C@@H](O[Si](C)(C)C(C)(C)C)[C@H]3O[Si](C)(C)C(C)(C)C)c2=O)cc1 (stereo partly drawn) [Example 30, 1-Benzyl 17-(tert-butyl)(2S,6S,9S,16S)-16-[(R)-[(3R,4R,5R)-3,4-bis{[tert-butyl(dimethyl)silyl]oxy}-5-(3-(4-methoxybenzyl)-2,4-dioxo-3,4-dihydro-1(2H)-pyrimidinyl)tetrahydro-2-furanyl](hydroxy)methyl]-6-(3-{[(2,2-dioxido-2lambda˜1˜-diazanyl)(imino)methyl]amino}propyl)-9-[(1S)-1-hydroxyethyl]-2-isopropyl-4,7,10-trioxo-3,5,8,11,15-pentaazaheptadecane-1,17-dioate]",–,–,–,–,–,–,–,–,–,–,–,–,–,–,–,–,–,–,–,–,MIC [1]: 128 µg/mL; MIC [2]: 128 µg/mL; MIC [3]: 128 µg/mL; MIC [4]: 64 µg/mL; MIC [5]: 128 µg/mL; MIC [6]: 128 µg/mL; MIC [7]: 128 µg/mL; MIC [8]: 64 µg/mL; MIC [9]: 128 µg/mL; MIC [10]: > 128 µg/mL; MIC [11]: 128 µg/mL; MIC [12]: 128 µg/mL; MIC [13]: 64 µg/mL; MIC [14]: 64 µg/mL; MIC [15]: 64 µg/mL; MIC [16]: 128 µg/mL; MIC [17]: > 128 µg/mL; MIC [18]: 64 µg/mL; MIC [19]: > 128 µg/mL; MIC [20]: 128 µg/mL
"CCOC(=O)C(NCCCNC(=O)[C@@H](N)[C@H](C)O)[C@@H](O)[C@H]1O[C@H](n2ccc(=O)[nH]c2=O)[C@H](OC(C)=O)[C@@H]1OC(C)=O (stereo partly drawn) [Example 32, Ethyl (3R)-2-[(3-{[(2S,3S)-2-amino-3-hydroxybutanoyl]amino}propyl)amino]-3-[(2R,3R,4R,5S)-3,4-bis(acetyloxy)-5-(2,4-dioxo-3,4-dihydro-1(2H)-pyrimidinyl)tetrahydro-2-furanyl]-3-hydroxypropanoate]",> 128,> 128,> 128,> 128,> 128,> 128,> 128,> 128,> 128,> 128,> 128,> 128,> 128,> 128,> 128,> 128,> 128,> 128,> 128,> 128,–
"CCOC(=O)C(NCCCNC(=O)[C@@H](NC(=O)[C@H](CCCNC(=N)N[N+](=O)O)NC(=O)N[C@H](C(=O)OCc1ccccc1)C(C)C)C(C)O)C(O)[C@H]1O[C@H](n2ccc(=O)[nH]c2=O)[C@H](OC(C)=O)[C@@H]1OC(C)=O (stereo partly drawn) [Example 34, 16-Benzyl 2-ethyl (1R,9S,12S,16S)-1-[(2R,3R,4R,5S)-3,4-bis(acetyloxy)-5-(2,4-dioxo-3,4-dihydro-1(2H)-pyrimidinyl)tetrahydro-2-furanyl]-12-(3-{[(2,2-dioxido-2lambda˜1˜-diazanyl)(imino)methyl]amino}propyl)-1-hydroxy-9-[(1S)-1-hydroxyethyl]-17-methyl-8,11,14-trioxo-3,7,10,13,15-pentaazaoctadecane-2,16-dicarboxylate]",> 128,> 128,> 128,> 128,–,–,–,128,> 128,> 128,> 128,> 128,128,> 128,128,> 128,> 128,128,> 128,> 128,MIC [5]: > 128 µg/mL; MIC [6]: > 128 µg/mL; MIC [7]: > 128 µg/mL
CCOC(=O)C(NCCCNC(=O)[C@@H](NC(=O)[C@H](CCCNC(=N)N[N+](=O)[O-])NC(=O)N[C@H](C(=O)OCc1ccccc1)C(C)C)C(C)O)C(O)[C@H]1O[C@@H](n2ccc(=O)[nH]c2=O)[C@H](OC(C)=O)[C@@H]1OC(C)=O (some centres unmarked) [Example 35],> 128,> 128,> 128,> 128,–,–,–,128,> 128,> 128,> 128,128,128,> 128,128,> 128,> 128,128,> 128,> 128,MIC [5]: > 128 µg/mL; MIC [6]: > 128 µg/mL; MIC [7]: > 128 µg/mL

# Second part, led by results:
"MIC [1, 21] [µg/mL]","MIC [2, 22] [µg/mL]","MIC [3, 23] [µg/mL]","MIC [4, 24] [µg/mL]","MIC ([5]; CNS GC 4537, read-out: MIC) [µg/mL]","MIC ([6]; CNS GC 4538, read-out: MIC) [µg/mL]","MIC ([7]; CNS GC 4547, read-out: MIC) [µg/mL]","MIC [8, 25] [µg/mL]","MIC [9, 26] [µg/mL]","MIC ([10]; E. coli GC 2203, read-out: MIC) [µg/mL]","MIC [11, 27] [µg/mL]","MIC [12, 28] [µg/mL]","MIC [13, 29] [µg/mL]","MIC ([14]; E. coli GC 4560, read-out: MIC) [µg/mL]","MIC [15, 30] [µg/mL]","MIC [16, 31] [µg/mL]","MIC ([17]; E. coli GC 3226, read-out: MIC) [µg/mL]","MIC [18, 32] [µg/mL]","MIC ([19]; E. coli GC 4559, read-out: MIC) [µg/mL]","MIC [20, 33] [µg/mL]",Structure (SMILES),also measured
128,> 128,> 128,128,> 128,> 128,> 128,128,> 128,128,128,128,128,128,128,128,128,128,> 128,128,"CCOC(=O)C(NCCCNC(=O)[C@@H](NC(=O)OCc1ccccc1)C(C)O)C(O)[C@H]1O[C@H](n2ccc(=O)[nH]c2=O)[C@H](OC(C)=O)[C@@H]1OC(C)=O (stereo partly drawn) [Example 31a, Ethyl (5S)-12-[(R)-[(2R,3R,4R,5S)-3,4-bis(acetyloxy)-5-(2,4-dioxo-3,4-dihydro-1(2H)-pyrimidinyl)tetrahydro-2-furanyl](hydroxy)methyl]-5-[(1S)-1-hydroxyethyl]-3,6-dioxo-1-phenyl-2-oxa-4,7,11-triazatridecan-13-oate]",–
> 128,> 128,> 128,> 128,> 128,> 128,> 128,> 128,> 128,> 128,> 128,> 128,> 128,> 128,> 128,> 128,> 128,> 128,> 128,> 128,"CCOC(=O)C(NCCCNC(=O)[C@@H](N)[C@H](C)O)[C@@H](O)[C@H]1O[C@@H](n2ccc(=O)[nH]c2=O)[C@H](OC(C)=O)[C@@H]1OC(C)=O (stereo partly drawn) [Example 33, Ethyl (3R)-2-[(3-{[(2S,3S)-2-amino-3-hydroxybutanoyl]amino}propyl)amino]-3-[(2R,3R,4R,5R)-3,4-bis(acetyloxy)-5-(2,4-dioxo-3,4-dihydro-1(2H)-pyrimidinyl)tetrahydro-2-furanyl]-3-hydroxypropanoate]",–
> 128,> 128,> 128,> 128,> 128,> 128,> 128,128,> 128,> 128,> 128,128,128,> 128,128,> 128,> 128,128,> 128,> 128,"CCOC(=O)C(NCCCNC(=O)[C@@H](NC(=O)OCc1ccccc1)[C@@H](O)C(C)C)[C@@H](O)[C@H]1O[C@@H](n2ccc(=O)[nH]c2=O)[C@H](OC(C)=O)[C@@H]1OC(C)=O (stereo partly drawn) [Example 36, Ethyl (5S)-12-[(R)-[(2R,3R,4R,5R)-3,4-bis(acetyloxy)-5-(2,4-dioxo-3,4-dihydro-1(2H)-pyrimidinyl)tetrahydro-2-furanyl](hydroxy)methyl]-5-[(1S)-1-hydroxy-2-methylpropyl]-3,6-dioxo-1-phenyl-2-oxa-4,7,11-triazatridecan-13-oate]",–
